Legend:
Test in all cases: Further analysis of a plurality of inhibitors and a plurality of kinases (Table 5 inhibition results)
Format in all cases: biochemical
Parameters in all cases: scale not given here
[1] = molecular target: T1, kinases of Table 5 (Homo sapiens, UniProt O14965); conditions: kinase STK6 (Part I, plate C6, Domain 1)
T1 sequence (O14965 1-403): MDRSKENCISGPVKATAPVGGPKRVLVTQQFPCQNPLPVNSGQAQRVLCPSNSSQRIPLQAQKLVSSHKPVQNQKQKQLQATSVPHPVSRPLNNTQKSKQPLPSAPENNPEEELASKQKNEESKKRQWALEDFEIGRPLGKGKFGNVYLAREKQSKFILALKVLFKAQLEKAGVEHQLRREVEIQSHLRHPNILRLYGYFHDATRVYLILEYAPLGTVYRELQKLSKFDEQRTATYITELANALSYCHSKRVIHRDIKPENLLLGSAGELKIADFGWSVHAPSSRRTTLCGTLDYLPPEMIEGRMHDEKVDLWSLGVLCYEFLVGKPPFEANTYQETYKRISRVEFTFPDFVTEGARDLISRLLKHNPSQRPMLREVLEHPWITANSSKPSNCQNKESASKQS
Source text: (§1) The wash solution is then discarded.

[2] = molecular target: T2, kinases of Table 5 (Homo sapiens, UniProt P29323); conditions: kinase EPHB2 (Part I, plate E5, Domain 1)
T2 sequence (P29323 19-1055): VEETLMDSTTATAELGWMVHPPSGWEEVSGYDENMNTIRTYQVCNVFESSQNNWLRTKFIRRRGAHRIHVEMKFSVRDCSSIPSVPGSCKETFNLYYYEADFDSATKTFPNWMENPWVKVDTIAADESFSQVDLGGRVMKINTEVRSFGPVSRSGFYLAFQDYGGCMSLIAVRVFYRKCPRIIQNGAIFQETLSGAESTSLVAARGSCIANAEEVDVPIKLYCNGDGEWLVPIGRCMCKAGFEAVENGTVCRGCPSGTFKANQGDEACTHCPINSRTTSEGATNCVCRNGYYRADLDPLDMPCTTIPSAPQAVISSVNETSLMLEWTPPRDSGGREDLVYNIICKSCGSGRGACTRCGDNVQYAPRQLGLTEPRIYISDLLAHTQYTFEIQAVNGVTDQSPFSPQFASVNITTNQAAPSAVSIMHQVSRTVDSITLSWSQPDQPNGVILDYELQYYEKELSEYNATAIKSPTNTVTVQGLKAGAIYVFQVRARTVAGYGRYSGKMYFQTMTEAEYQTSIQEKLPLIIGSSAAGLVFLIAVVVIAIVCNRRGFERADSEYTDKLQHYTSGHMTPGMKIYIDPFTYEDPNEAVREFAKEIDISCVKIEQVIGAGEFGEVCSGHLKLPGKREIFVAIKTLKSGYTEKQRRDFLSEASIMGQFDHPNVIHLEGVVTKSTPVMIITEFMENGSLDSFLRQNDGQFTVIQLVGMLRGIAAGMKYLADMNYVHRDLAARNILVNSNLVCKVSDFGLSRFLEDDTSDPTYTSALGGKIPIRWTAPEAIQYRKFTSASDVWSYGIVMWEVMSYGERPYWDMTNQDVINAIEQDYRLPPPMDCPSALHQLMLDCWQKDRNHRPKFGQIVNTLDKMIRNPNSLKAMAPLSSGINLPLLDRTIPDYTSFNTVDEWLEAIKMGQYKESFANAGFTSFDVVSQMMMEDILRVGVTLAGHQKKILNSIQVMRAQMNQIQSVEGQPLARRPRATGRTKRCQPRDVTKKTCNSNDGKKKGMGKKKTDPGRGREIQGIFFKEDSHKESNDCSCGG
Source text: as §1

[3] = molecular target: kinases of Table 5 (Homo sapiens, UniProt P11362); conditions: inhibitor 100 uM; for Inhibition level: kinase FGFR1; for Inhibition Results (Level): kinase FGFR1 (Part II, plate D12, Domain 1)
Sequence of kinases of Table 5 (Homo sapiens, UniProt P11362) (P11362 22-822): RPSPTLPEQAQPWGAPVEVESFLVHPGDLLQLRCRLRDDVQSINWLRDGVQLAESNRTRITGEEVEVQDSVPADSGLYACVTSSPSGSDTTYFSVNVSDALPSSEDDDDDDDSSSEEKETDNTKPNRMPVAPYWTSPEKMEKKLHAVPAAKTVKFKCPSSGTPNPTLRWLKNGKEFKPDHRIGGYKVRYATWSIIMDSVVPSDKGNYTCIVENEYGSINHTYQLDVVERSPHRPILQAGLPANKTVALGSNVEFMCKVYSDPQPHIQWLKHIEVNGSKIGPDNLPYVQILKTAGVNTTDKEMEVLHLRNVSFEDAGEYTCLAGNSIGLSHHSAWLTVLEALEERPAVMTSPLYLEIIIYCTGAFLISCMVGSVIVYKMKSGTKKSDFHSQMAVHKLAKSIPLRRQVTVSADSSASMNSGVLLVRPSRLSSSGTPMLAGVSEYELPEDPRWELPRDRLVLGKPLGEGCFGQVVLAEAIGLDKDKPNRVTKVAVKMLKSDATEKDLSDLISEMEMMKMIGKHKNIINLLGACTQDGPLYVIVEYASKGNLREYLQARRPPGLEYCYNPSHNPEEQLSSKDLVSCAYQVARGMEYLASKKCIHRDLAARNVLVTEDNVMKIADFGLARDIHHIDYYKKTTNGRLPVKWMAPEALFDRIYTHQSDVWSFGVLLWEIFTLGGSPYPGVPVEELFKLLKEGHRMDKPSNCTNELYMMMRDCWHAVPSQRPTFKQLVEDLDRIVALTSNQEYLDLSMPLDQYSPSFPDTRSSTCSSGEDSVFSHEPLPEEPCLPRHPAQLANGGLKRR
Source text: as §1

[4] = molecular target: T3, kinases of Table 5 (Homo sapiens, UniProt Q99759); conditions: kinase MAP3K3 (Part I, plate A1, Domain 0)
T3 sequence (Q99759 1-626): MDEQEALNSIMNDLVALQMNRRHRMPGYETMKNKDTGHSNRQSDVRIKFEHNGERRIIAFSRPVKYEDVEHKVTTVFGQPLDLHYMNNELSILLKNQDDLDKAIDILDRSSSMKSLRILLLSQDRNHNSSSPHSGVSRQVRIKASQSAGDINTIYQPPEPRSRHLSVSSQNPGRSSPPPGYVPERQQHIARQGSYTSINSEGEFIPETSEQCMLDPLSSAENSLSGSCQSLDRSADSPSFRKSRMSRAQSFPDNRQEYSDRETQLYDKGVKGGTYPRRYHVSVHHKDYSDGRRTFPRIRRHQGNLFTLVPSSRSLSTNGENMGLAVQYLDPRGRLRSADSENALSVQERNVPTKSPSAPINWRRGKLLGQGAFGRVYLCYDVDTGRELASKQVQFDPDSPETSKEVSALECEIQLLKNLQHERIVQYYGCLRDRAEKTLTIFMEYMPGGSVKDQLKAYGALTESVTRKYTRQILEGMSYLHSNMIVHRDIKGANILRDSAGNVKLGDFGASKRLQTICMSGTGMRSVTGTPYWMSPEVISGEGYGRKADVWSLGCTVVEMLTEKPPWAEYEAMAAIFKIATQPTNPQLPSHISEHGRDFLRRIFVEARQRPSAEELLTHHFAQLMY
Source text: as §1

[5] = molecular target: kinases of Table 5 (Homo sapiens, UniProt Q7KZI7); conditions: kinase MARK2 (Part I, plate C4, Domain 1); inhibitor 100 uM
Sequence of kinases of Table 5 (Homo sapiens, UniProt Q7KZI7) (Q7KZI7 whole entry): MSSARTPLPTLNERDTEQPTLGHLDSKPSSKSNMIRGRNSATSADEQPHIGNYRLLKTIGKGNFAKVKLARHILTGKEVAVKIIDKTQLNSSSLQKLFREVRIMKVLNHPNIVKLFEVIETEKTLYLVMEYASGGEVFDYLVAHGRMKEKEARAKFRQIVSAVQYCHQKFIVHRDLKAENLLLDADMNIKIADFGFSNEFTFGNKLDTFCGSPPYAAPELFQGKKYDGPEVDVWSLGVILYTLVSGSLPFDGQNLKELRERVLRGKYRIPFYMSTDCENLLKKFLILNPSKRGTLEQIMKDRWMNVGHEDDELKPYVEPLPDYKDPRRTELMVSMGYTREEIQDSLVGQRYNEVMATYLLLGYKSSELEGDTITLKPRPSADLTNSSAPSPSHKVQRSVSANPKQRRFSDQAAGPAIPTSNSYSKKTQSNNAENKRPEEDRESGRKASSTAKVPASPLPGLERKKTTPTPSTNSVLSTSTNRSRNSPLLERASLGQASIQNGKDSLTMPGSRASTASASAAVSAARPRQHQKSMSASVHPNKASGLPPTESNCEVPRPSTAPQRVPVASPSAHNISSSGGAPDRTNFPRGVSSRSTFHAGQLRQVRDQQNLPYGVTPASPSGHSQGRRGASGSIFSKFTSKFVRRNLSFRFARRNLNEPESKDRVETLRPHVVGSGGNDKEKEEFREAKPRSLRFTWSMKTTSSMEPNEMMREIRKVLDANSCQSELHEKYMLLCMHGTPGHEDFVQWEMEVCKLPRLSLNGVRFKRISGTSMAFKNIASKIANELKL
Source text: as §1

[6] = molecular target: kinases of Table 5 (Homo sapiens, UniProt Q14289); conditions: kinase PTK2B (Part I, plate G5, Domain 1)
Sequence of kinases of Table 5 (Homo sapiens, UniProt Q14289) (Q14289 whole entry): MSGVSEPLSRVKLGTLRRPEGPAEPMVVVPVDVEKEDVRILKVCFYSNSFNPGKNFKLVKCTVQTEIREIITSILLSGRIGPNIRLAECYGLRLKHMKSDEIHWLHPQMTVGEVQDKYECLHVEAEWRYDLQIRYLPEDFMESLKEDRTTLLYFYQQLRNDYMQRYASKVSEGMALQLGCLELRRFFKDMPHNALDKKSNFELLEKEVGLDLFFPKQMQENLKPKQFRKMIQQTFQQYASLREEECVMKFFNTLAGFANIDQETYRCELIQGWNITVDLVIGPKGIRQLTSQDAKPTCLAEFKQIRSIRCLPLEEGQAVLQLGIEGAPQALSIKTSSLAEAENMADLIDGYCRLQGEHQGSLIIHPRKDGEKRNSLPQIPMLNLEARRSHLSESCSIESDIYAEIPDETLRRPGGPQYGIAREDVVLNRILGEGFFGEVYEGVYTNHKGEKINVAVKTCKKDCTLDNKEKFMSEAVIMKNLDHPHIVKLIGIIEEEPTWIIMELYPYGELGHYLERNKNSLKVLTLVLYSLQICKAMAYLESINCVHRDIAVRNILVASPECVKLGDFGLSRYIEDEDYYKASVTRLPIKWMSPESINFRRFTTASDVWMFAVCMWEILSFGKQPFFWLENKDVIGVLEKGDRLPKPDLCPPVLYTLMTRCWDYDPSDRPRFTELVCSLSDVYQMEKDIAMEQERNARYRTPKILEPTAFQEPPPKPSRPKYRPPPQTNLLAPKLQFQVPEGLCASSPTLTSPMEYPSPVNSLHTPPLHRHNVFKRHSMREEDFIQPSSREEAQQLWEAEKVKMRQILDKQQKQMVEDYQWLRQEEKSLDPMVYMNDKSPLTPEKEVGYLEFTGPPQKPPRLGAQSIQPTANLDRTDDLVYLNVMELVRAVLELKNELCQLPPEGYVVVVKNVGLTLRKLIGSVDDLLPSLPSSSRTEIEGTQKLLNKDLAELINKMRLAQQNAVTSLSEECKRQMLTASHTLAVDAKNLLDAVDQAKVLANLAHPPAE
Source text: as §1

[7] = molecular target: T4, kinases of Table 5 (Homo sapiens, UniProt Q96KB5); conditions: kinase TOPK (Part I, plate G7, Domain 1)
T4 sequence (Q96KB5 1-322): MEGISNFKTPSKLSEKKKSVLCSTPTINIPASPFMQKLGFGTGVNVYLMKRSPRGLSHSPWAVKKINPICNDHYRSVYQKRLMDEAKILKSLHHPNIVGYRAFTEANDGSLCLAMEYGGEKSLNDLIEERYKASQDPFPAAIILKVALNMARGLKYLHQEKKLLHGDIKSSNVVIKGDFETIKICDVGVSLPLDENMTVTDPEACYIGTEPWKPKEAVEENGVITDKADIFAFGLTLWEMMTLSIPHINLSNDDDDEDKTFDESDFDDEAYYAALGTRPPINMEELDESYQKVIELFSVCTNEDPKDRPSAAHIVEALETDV
Source text: as §1

[8] = molecular target: kinases of Table 5 (Homo sapiens, UniProt O75914); conditions: for Inhibition level: kinase PAK3; for Inhibition Results (Level): kinase PAK3 (Part II, plate D4, Domain 1)
Sequence of kinases of Table 5 (Homo sapiens, UniProt O75914) (O75914 whole entry): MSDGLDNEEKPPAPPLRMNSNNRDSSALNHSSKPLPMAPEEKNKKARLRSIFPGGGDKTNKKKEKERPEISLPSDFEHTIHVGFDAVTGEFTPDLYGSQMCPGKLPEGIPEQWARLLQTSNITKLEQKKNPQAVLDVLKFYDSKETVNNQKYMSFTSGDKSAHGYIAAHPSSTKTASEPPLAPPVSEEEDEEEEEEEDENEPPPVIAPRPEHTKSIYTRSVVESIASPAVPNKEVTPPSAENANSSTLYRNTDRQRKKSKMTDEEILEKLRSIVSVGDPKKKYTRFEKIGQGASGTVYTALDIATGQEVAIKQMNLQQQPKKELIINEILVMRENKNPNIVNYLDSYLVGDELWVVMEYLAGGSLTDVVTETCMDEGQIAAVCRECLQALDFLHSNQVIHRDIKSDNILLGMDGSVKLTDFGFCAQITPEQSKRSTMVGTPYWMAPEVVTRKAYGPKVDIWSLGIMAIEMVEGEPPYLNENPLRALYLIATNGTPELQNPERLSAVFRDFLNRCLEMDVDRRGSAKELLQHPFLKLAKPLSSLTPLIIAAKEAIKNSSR
Source text: as §1

N#C/C(=C/c1ccc(O)c(O)c1)C(=O)NCc1ccccc1 [AG 490]
Inhibition Results (Level) ([1]; inhibitor 100 uM): 2
Inhibition Results (Level) ([2]; inhibitor 100 uM): 2
Inhibition level [3]: 0
Inhibition Results (Level) ([4]; inhibitor 100 uM): 2
Inhibition Results (Level) [5]: 2
Inhibition Results (Level) ([6]; inhibitor 100 uM): 2
Inhibition Results (Level) ([7]; inhibitor 100 uM): 2
Inhibition level ([8]; inhibitor 100 uM): 1

COc1cc2ncnc(Nc3cccc(Cl)c3)c2cc1OC [AG 1478]
Inhibition Results (Level) ([1]; inhibitor 100 uM): 0
Inhibition Results (Level) ([2]; inhibitor 100 uM): 2
Inhibition level [3]: 1
Inhibition Results (Level) ([4]; inhibitor 100 uM): 2
Inhibition Results (Level) [5]: 2
Inhibition Results (Level) ([6]; inhibitor 100 uM): 2
Inhibition Results (Level) ([7]; inhibitor 100 uM): 1
Inhibition level ([8]; inhibitor 100 uM): 2

O=c1c(-c2ccc(O)cc2)coc2cc(O)cc(O)c12 [Genistein]
Inhibition Results (Level) ([1]; inhibitor 100 uM): 2
Inhibition Results (Level) ([1]; inhibitor <3.7 mM): 0
Inhibition Results (Level) ([2]; inhibitor 100 uM): 2
Inhibition Results (Level) ([2]; inhibitor <3.7 mM): 0
Inhibition level [3]: 0
Inhibition Results (Level) ([4]; inhibitor 100 uM): 2
Inhibition Results (Level) ([4]; inhibitor <3.7 mM): 2
Inhibition Results (Level) [5]: 2
Inhibition Results (Level) ([6]; inhibitor 100 uM): 2
Inhibition Results (Level) ([7]; inhibitor 100 uM): 2
Inhibition Results (Level) ([7]; inhibitor <3.7 mM): 0
Inhibition level ([8]; concentration not given): 0
Inhibition level ([8]; inhibitor 100 uM): 2

O=S(=O)(NCCNC/C=C/c1ccc(Br)cc1)c1cccc2cnccc12 [H-89]
Inhibition Results (Level) ([1]; inhibitor 100 uM): 0
Inhibition Results (Level) ([2]; inhibitor 100 uM): 2
Inhibition Results (Level) [3]: 1
Inhibition Results (Level) ([4]; inhibitor 100 uM): 2
Inhibition Results (Level) [5]: 2
Inhibition Results (Level) ([6]; inhibitor 100 uM): 1
Inhibition Results (Level) ([7]; inhibitor 100 uM): 2
Inhibition Results (Level) ([8]; inhibitor 100 uM): 2

CC(C)(C)n1nc(-c2ccc(Cl)cc2)c2c(N)ncnc21 [PP2]
Inhibition Results (Level) ([1]; inhibitor 100 uM): 2
Inhibition Results (Level) ([2]; inhibitor 100 uM): 2
Inhibition level [3]: 2
Inhibition Results (Level) ([4]; inhibitor 100 uM): 2
Inhibition Results (Level) [5]: 2
Inhibition Results (Level) ([6]; inhibitor 100 uM): 2
Inhibition Results (Level) ([7]; inhibitor 100 uM): 2
Inhibition level ([8]; inhibitor 100 uM): 2

O=c1c(O)c(-c2ccc(O)c(O)c2)oc2cc(O)cc(O)c12 [Quercetin]
Inhibition Results (Level) ([2]; inhibitor 100 uM): 2
Inhibition Results (Level) ([4]; inhibitor 100 uM): 0
Inhibition Results (Level) ([6]; inhibitor 100 uM): 1
Inhibition Results (Level) ([7]; inhibitor 100 uM): 0
Inhibition Results (Level) ([8]; inhibitor 100 uM): 2

Cn1cc(C2=C(c3cn(CCCSC(=N)N)c4ccccc34)C(=O)NC2=O)c2ccccc21 [Ro-31-8220]
Inhibition Results (Level) ([1]; inhibitor 90 uM): 0
Inhibition Results (Level) ([1]; inhibitor 100 uM): 2
Inhibition Results (Level) ([2]; inhibitor 90 uM): 0
Inhibition Results (Level) ([2]; inhibitor 100 uM): 2
Inhibition level [3]: 2
Inhibition Results (Level) ([4]; inhibitor 90 uM): 2
Inhibition Results (Level) ([4]; inhibitor 100 uM): 0
Inhibition Results (Level) [5]: 2
Inhibition Results (Level) ([6]; inhibitor 90 uM): 0
Inhibition Results (Level) ([6]; inhibitor 100 uM): 2
Inhibition Results (Level) ([7]; inhibitor 90 uM): 2
Inhibition Results (Level) ([7]; inhibitor 100 uM): 0
Inhibition level ([8]; concentration not given): 2
Inhibition level ([8]; inhibitor 100 uM): 2

CC(=O)c1c(O)c(C)c(O)c(Cc2c(O)c3c(c(C(=O)/C=C/c4ccccc4)c2O)OC(C)(C)C=C3)c1O [Rottlerin (Mallotoxin)]
Inhibition Results (Level) ([1]; inhibitor 100 uM): 2
Inhibition Results (Level) ([2]; inhibitor 100 uM): 2
Inhibition Results (Level) [3]: 1
Inhibition Results (Level) ([4]; inhibitor 100 uM): 2
Inhibition Results (Level) [5]: 2
Inhibition Results (Level) ([6]; inhibitor 100 uM): 2
Inhibition Results (Level) ([7]; inhibitor 100 uM): 2
Inhibition Results (Level) ([8]; inhibitor 100 uM): 0

CN[C@@H]1C[C@H]2O[C@@](C)([C@@H]1OC)n1c3ccccc3c3c4c(c5c6ccccc6n2c5c31)C(=O)NC4 [Staurosporine]
Inhibition Results (Level) ([1]; inhibitor 21.5 uM): 0
Inhibition Results (Level) ([4]; inhibitor 21.5 uM): 2
Inhibition Results (Level) ([6]; inhibitor 21.5 uM): 0
Inhibition Results (Level) ([7]; inhibitor 21.5 uM): 2
